The source of these data is patent US9278914B2, “SARMs and method of use thereof” (UNIVERSITY OF TENNESSEE RESEARCH FOUNDATION, priority 2004, dated 2016).

SMILES strings stand for the structures.

The test system of test [1] is castrated (ORX) male Sprague-Dawley rats. Nature of the test: Anabolic and androgenic activity in castrated (ORX) male rats, daily oral gavage for fourteen days. The format is in vivo, rat. As to conditions: for Levator ani muscle weight, maximally stimulated: maximal stimulation, comparator; for Anabolic muscle/prostate ratio: castrated rats. On the procedure: Male Sprague-Dawley rats weighing approximately 200 g were purchased from Harlan Bioproducts for Science (Indianapolis, Ind.).
The test article for this study was weighed and dissolved in 10% DMSO (Fisher) diluted with PEG 300 (Acros Organics, N.J.) for preparation of the appropriate dosage concentrations. […] Animals were randomly assigned to one of seven groups consisting of 4 to 5 animals per group. Control groups (intact and ORX) were administered vehicle daily. […] Where appropriate, animals were castrated on day one of the study.
(§1) In addition, ventral prostate, seminal vesicles, and levator ani muscle were removed, individually weighed, normalized to body weight, and expressed as a percentage of intact control. Student's T-test was used to compare individual dose groups to the intact control group. Significance was defined a priori as a P-value<0.05. Ventral prostate and seminal vesicle weights were evaluated as a measure of androgenic activity, whereas levator ani muscle weight was evaluated as a measure of anabolic activity. Blood was collected from the abdominal aorta, centrifuged, and sera were frozen at −80° C. prior to determination of serum hormone levels. Serum luteinizing hormone (LH) and follicle stimulating hormone (FSH) concentrations were determined.
(§2) The test article for this study was weighed and dissolved in 10% DMSO (Fisher) diluted with PEG 300 (Acros Organics, N.J.) for preparation of the appropriate dosage concentrations. […] Animals were randomly assigned to one of seven groups consisting of 4 to 5 animals per group. Control groups (intact and ORX) were administered vehicle daily. Compound of formula S-XXIII was administered via oral gavage at doses of 0.01, 0.03, 0.1, 0.3, 0.75, and 1 mg/day to both intact and ORX groups. Where appropriate, animals were castrated on day one of the study. Treatment with compound of formula S-XXIII began nine days post ORX and was administered daily via oral gavage for fourteen days.
Male Sprague-Dawley rats weighing approximately 200 g were purchased from Harlan Bioproducts for Science (Indianapolis, Ind.). […] Regenerative effects of the compound of formula S-XXIV in chronically (9 days) ORX rats was similarly evaluated.
as §2, with “S-XXIV” for “S-XXIII”
Male Sprague-Dawley rats weighing approximately 200 g were purchased from Harlan Bioproducts for Science (Indianapolis, Ind.). […] Anabolic and androgenic activity of compound of formula S-XXV in intact animals was evaluated, and the dose response in acutely orchidectomized (ORX) animals was evaluated as well.
The compound was weighed and dissolved in 10% DMSO (Fisher) diluted with PEG 300 (Acros Organics, N.J.) for preparation of the appropriate dosage concentrations.

The subject of test [2] is intact male Sprague-Dawley rats. Nature of the test: Anabolic and androgenic activity in intact male rats, daily oral gavage. The format is in vivo, rat. On the procedure: The test article for this study was weighed and dissolved in 10% DMSO (Fisher) diluted with PEG 300 (Acros Organics, N.J.) for preparation of the appropriate dosage concentrations. The animals were housed in groups of 2 to 3 animals per cage. Animals were randomly assigned to one of seven groups consisting of 4 to 5 animals per group. Control groups (intact and ORX) were administered vehicle daily. […] Where appropriate, animals were castrated on day one of the study. Treatment with compound of formula S-II began nine days post ORX and was administered daily via oral gavage for fourteen days.
as §1, with “The animals were sacrificed under anesthesia (ketamine/xyalzine, 87:13 mg/kg) and body weights were recorded. In” for “In”
(§3) The test article for this study was weighed and dissolved in 10% DMSO (Fisher) diluted with PEG 300 (Acros Organics, N.J.) for preparation of the appropriate dosage concentrations. The animals were housed in groups of 2 to 3 animals per cage. Animals were randomly assigned to one of seven groups consisting of 4 to 5 animals per group. Control groups (intact and ORX) were administered vehicle daily. Compound of formula S-XXIII was administered via oral gavage at doses of 0.01, 0.03, 0.1, 0.3, 0.75, and 1 mg/day to both intact and ORX groups. Where appropriate, animals were castrated on day one of the study. Treatment with compound of formula S-XXIII began nine days post ORX and was administered daily via oral gavage for fourteen days.
as §3, with “S-XXIV” for “S-XXIII”, “study.” for “study. Treatment with compound of formula S-XXIII began nine days post ORX and was administered daily via oral gavage for fourteen days.”

Where [3] appears, read: ORX rats, nonlinear regression, sigmoid Emax model.

In the case of `CC(=O)Nc1ccc(OC[C@](C)(O)C(=O)Nc2ccc([N+](=O)[O-])c(C(F)(F)F)c2)cc1` [S-4, S-3-(4-acetylaminophenoxy)-2-hydroxy-2-methyl-N-(4-nitro-3-trifluoromethylphenyl) propionamide, reference compound], the “Levator ani muscle weight, maximally stimulated” value in test [1] worked out at 101%.
Take `C[C@](O)(COc1ccc(C#N)c(F)c1)C(=O)Nc1ccc(C#N)c(C(F)(F)F)c1` [S-XXIII]: the “Levator ani muscle weight” value in test [2] (0.01 mg/day oral) is 116%±7%; in test [2] (0.03 mg/day oral) it was 134%±8%; in test [2] (0.1 mg/day oral) it was 134%±21%; in test [2] (0.3 mg/day oral), 134%±11%; in test [2] (0.75 mg/day oral), 142%±10%; in test [2] (1 mg/day oral) it was 147%±10%. For the same molecule, the “Levator ani muscle weight” value was 71%±4% in test [1] (ORX rats, 0.01 mg/day oral); 101%±15% in test [1] (ORX rats, 0.03 mg/day oral); 125%±20% in test [1] (ORX rats, 0.1 mg/day oral); 126%±14% in test [1] (ORX rats, 0.3 mg/day oral); 151±9 % of intact controls in test [1] (ORX rats, 0.75 mg/day oral); 143±17 % of intact controls in test [1] (ORX rats, 1 mg/day oral). The Prostate weight is given as 98%±21% in test [2] (0.01 mg/day oral); 99%±8% in test [2] (0.03 mg/day oral); 85%±18% in test [2] (0.1 mg/day oral); 98%±22% in test [2] (0.3 mg/day oral); 126%±17% in test [2] (0.75 mg/day oral); 126%±17% in test [2] (1 mg/day oral). Besides, the Prostate weight is 24%±4% in test [1] (ORX rats, 0.01 mg/day oral); 37%±9% in test [1] (ORX rats, 0.03 mg/day oral); 50%±11% in test [1] (ORX rats, 0.1 mg/day oral); 88%±16% in test [1] (ORX rats, 0.3 mg/day oral); 132%±16% in test [1] (ORX rats, 0.75 mg/day oral); 118±12 % of intact controls in test [1] (ORX rats, 1 mg/day oral). Further, the Seminal vesicle weight in test [2] (0.01 mg/day oral) is given as 115%±12%; in test [2] (0.03 mg/day oral) it was 109%±17%; in test [2] (0.1 mg/day oral) it was 106%±13%; in test [2] (0.3 mg/day oral), 121%±11%; in test [2] (0.75 mg/day oral) it was 157%±5%; in test [2] (1 mg/day oral) it was 136%±3%. Also, the Seminal vesicle weight was 15%±2% in test [1] (ORX rats, 0.01 mg/day oral); 25%±9% in test [1] (ORX rats, 0.03 mg/day oral); 67%±20% in test [1] (ORX rats, 0.1 mg/day oral); 113%±6% in test [1] (ORX rats, 0.3 mg/day oral); 155%±16% in test [1] (ORX rats, 0.75 mg/day oral); 160%±7% in test [1] (ORX rats, 1 mg/day oral). In addition, the “Dose able to fully restore/maintain levator ani muscle weight” value in test [1] (ORX rats) is 0.03 mg/day. In test [1] (ORX rats), this molecule registered an ED50 levator ani of 0.03 ± 0.01 mg/day. The molecule further showed an ED50 prostate in test [1] (ORX rats) of 0.21 ± 0.04 mg/day. In test [1] (ORX rats), this molecule yielded an ED50 seminal vesicles of 0.2 ± 0.04 mg/day. Further, in test [1] (setting [3]), the Emax levator ani is 147%±10%. Moreover, the Emax prostate in test [1] (setting [3]) is on record as 147%±10%. In addition, the Emax seminal vesicles in test [1] (setting [3]) is on record as 188%±135%.
Consider `C[C@](O)(COc1ccc(C#N)cc1)C(=O)Nc1ccc(C#N)c(Cl)c1` [S-XXIV, (S)—N-(3-chloro-4-cyanophenyl)-3-(4-cyanophenoxy)-2-hydroxy-2-methylpropanamide], for which the “Levator ani muscle weight” value in test [2] (0.01 mg/day oral) is on record as 107%±5%; in test [2] (0.03 mg/day oral), 103%±7%; in test [2] (0.1 mg/day oral), 97%±7%; in test [2] (0.3 mg/day oral), 103%±5%; in test [2] (0.75 mg/day oral), 118%±7%; in test [2] (1 mg/day oral), 118%±7%. Moreover, the “Levator ani muscle weight” value in test [1] (ORX rats, 0.01 mg/day oral) is recorded as 52%±8%; in test [1] (ORX rats, 0.03 mg/day oral), 67%±9%; in test [1] (ORX rats, 0.1 mg/day oral) it was 98%±10%; in test [1] (ORX rats, 0.3 mg/day oral), 103%±12%; in test [1] (ORX rats, 0.75 mg/day oral), 105%±12%. Also, the Prostate weight is 103%±10% in test [2] (0.01 mg/day oral); 99%±10% in test [2] (0.03 mg/day oral); 58%±10% in test [2] (0.1 mg/day oral); 58%±15% in test [2] (0.3 mg/day oral); 65%±20% in test [2] (0.75 mg/day oral); 77%±23% in test [2] (1 mg/day oral). In addition, the Prostate weight is recorded as 17%±6% in test [1] (ORX rats, 0.01 mg/day oral); 31%±3% in test [1] (ORX rats, 0.03 mg/day oral); 43%±15% in test [1] (ORX rats, 0.1 mg/day oral); 54%±17% in test [1] (ORX rats, 0.3 mg/day oral); 58%±10% in test [1] (ORX rats, 0.75 mg/day oral). In addition, the “Dose restoring 100% of levator ani muscle weight” value in test [1] (ORX rats) was 0.1 mg/day. For the same molecule, the “Prostate weight restored at the dose restoring 100% levator ani” value in test [1] (ORX rats) stood at 43±15%. The Seminal vesicle weight in test [1] (ORX rats, 0.01 mg/day oral) is 10%±3%; in test [1] (ORX rats, 0.03 mg/day oral) it was 13%±4%; in test [1] (ORX rats, 0.1 mg/day oral) it was 21%±6%; in test [1] (ORX rats, 0.3 mg/day oral), 43%±8%; in test [1] (ORX rats, 0.75 mg/day oral), 51%±9%; in test [1] (ORX rats, 1 mg/day oral), 69%±14%. Besides, the Anabolic muscle/prostate ratio is 3.02 in test [1] (0.01 mg/day); 2.13 in test [1] (0.03 mg/day); 2.27 in test [1] (0.1 mg/day); 1.90 in test [1] (0.3 mg/day); 1.83 in test [1] (0.75 mg/day); 1.51 in test [1] (1 mg/day).
As to `CCC(=O)O[C@H]1CC[C@H]2[C@@H]3CCC4=CC(=O)CC[C@]4(C)[C@H]3CC[C@]12C` [Testosterone propionate, reference compound], the “Levator ani muscle weight, maximally stimulated” value in test [1] is 104%.
